From patent publication US20250195524A1, “PYRIMIDO-PYRIDAZINONE COMPOUND AS TOLL-LIKE RECEPTOR AGONIST” (SHANGHAI VISONPHARMA CO., LTD., priority 2022, published 2025)

Molecular target: T1, human TLR8 (Homo sapiens, UniProt Q9NR97)
T1 construct: host or cells: HEK-Blue hTLR8 (HEK293-derived reporter cells)
T1 sequence (Q9NR97 27-1041): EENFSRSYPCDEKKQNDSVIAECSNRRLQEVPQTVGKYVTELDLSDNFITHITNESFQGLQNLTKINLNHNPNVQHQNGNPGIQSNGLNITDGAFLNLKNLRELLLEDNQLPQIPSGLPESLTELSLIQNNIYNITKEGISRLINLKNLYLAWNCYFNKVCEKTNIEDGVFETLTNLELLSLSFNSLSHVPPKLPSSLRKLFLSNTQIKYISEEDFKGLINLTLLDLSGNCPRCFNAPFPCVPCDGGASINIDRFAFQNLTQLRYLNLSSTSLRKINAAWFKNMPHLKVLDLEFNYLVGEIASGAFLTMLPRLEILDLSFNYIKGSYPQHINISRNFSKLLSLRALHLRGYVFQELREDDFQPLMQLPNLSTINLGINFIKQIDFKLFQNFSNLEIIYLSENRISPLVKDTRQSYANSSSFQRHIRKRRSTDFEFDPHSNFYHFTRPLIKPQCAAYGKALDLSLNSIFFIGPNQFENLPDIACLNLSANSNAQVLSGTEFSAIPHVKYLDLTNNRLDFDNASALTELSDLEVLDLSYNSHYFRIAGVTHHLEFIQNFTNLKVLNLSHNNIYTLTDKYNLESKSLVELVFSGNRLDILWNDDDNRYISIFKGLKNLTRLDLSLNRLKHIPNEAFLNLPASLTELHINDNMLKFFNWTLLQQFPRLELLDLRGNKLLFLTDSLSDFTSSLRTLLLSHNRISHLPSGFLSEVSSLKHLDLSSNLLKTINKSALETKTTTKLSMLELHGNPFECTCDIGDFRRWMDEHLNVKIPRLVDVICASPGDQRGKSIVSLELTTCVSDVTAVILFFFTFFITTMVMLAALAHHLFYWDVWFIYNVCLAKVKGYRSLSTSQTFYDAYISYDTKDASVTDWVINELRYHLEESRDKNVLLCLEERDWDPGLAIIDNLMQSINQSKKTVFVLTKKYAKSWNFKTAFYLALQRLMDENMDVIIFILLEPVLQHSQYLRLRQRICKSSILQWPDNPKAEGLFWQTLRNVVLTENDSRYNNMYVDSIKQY
Assay: HEK-Blue hTLR8 SEAP reporter gene agonism assay
Assay type: cell-based
Settings: HEK-Blue hTLR8 cells, SEAP (Quanti-blue, 650 nm), 16-22 hours incubation
Experimental: The agonistic activity of the compounds of the present invention on TLR7 or TLR8 was evaluated using HEK-Blue™ cells stably expressing human TLR7 or TLR8. And the agonistic activity was assayed using their ability to induce the SEAP reporter gene under the control of the IFN-β minimal promoter fused to five NF-κB and ap-1 binding sites, specifically as follows:
HEK-Blue™ hTLR7 (Invivogen, 80,000 cells per well) or HEK-Blue™ hTLR8 (Invivogen, 60,000 cells per well) was added to a 96-well cell culture plate, the compound to be tested is added whereafter, and the final concentration of the compound(s) to be tested in the medium ranged from 0.001 to 36 μM, then incubated for 16-22 hours. SEAP levels in the cell culture medium were detected using HEK-Blue assay reagent Quanti-blue (Invivogen) according to the manufacturer's instructions. Neo2 Multifunctional Enzyme Labeler (Bio-tek) was used to determine the light absorption at 650 nm. GraphPad Prism was utilized to calculate the EC50, which is the half effective concentration of the drug.

| Compound | EC50 [nM] |
| --- | --- |
| CCCCNc1nc(N)nc2cnn(Cc3ccc(CN4CCCC4)cn3)c(=O)c12 [Compound I-62, 2-amino-4-(butylamino)-6-((5-(pyrrolidin-1-ylmethyl)pyridin-2-yl)methyl)pyrimido[4,5-d]pyridazin-5(6H)-one] | 589 |
| CCCCNc1nc(N)nc2cnn(Cc3ccc(C(=O)N4CCN(C)CC4)cc3)c(=O)c12 [Compound I-3, 2-amino-4-(butylamino)-6-(4-(4-methylpiperazine-1-carbonyl)benzyl)pyrimido[4,5-d]pyridazin-5(6H)-one] | 615 |
| CCCCNc1nc(N)nc2cnn(Cc3ccc4c(c3)CCN(C(C)C)C4)c(=O)c12 [Compound I-13, 2-amino-4-(butylamino)-6-((2-isopropyl-1,2,3,4-tetrahydroisoquinolin-6-yl)methyl)pyrimido[4,5-d]pyridazin-5(6H)-one] | 549 |
| COCCNc1nc(N)nc2cnn(Cc3ccc(CN4CCCC4)cc3)c(=O)c12 [Compound I-4, 2-amino-4-((2-methoxyethyl)amino)-6-(4-(pyrrolidin-1-ylmethyl)benzyl)pyrimido[4,5-d]pyridazin-5(6H)-one] | 403 |
| CCC[C@@H](CC)Nc1nc(N)nc2cnn(Cc3ccc(CN4CCCC4)cc3)c(=O)c12 [Compound I-63, (R)-2-amino-4-(hexan-3-ylamino)-6-(4-(pyrrolidin-1-ylmethyl)benzyl)pyrimido[4,5-d]pyridazin-5(6H)-one] | 534 |
| CCCCNc1nc(N)nc2cnn(Cc3ccc(CN4CCCC4)nc3OC)c(=O)c12 [Compound I-16, 2-amino-4-(butylamino)-6-((2-methoxy-6-(pyrrolidin-1-ylmethyl)pyridin-3-yl)methyl)pyrimido[4,5-d]pyridazin-5(6H)-one] | 354 |
| CCCCNc1nc(N)nc2cnn(Cc3ccc(CN4CCCC4)cc3F)c(=O)c12 [Compound I-15, 2-amino-4-(butylamino)-6-(2-fluoro-4-(pyrrolidin-1-ylmethyl)benzyl)pyrimido[4,5-d]pyridazin-5(6H)-one] | 326 |
| CCCCNc1nc(N)nc2cnn(Cc3ccc(CN(CCC)CCO)cc3)c(=O)c12 [Compound I-21] | 388 |
| CCCCNc1nc(N)nc2cnn(Cc3ccc(CNC4CC4)cc3)c(=O)c12 [Compound I-10, 2-amino-4-(butylamino)-6-(4-((cyclopropylamino)methyl)benzyl)pyrimido[4,5-d]pyridazin-5(6H)-one] | 569 |
| CCC[C@@H](C)Nc1nc(N)nc2cnn(Cc3ccc(CN(CCC)CCO)cc3)c(=O)c12 [Compound I-26] | 322 |
| CCCCNc1nc(N)nc2cnn(Cc3ccc(CN4CCCC4)c(OC)c3)c(=O)c12 [Compound I-17, 2-amino-4-(butylamino)-6-(3-methoxy-4-(pyrrolidin-1-ylmethyl)benzyl)pyrimido[4,5-d]pyridazin-5(6H)-one] | 368 |
| CCCCNc1nc(N)nc2cnn(Cc3ccc(CN4CC5CC(C4)N5)cc3)c(=O)c12 [Compound I-11, 6-(4-((3,6-Diazabicyclo[3.1.1]heptan-3-yl)methyl)benzyl)-2-amino-4-(butylamino)pyrimido[4,5-d]pyridazin-5(6H)-one] | 267 |
| CCC[C@@H](C)Nc1nc(N)nc2cnn(Cc3ccc(CN4CC5(COC5)C4)cc3OC)c(=O)c12 [Compound I-43, (R)-6-(4-((2-oxo-6-azaspiro[3.3]heptan-6-yl)methyl)-2-methoxybenzyl)-2-amino-4-(pentan-2-ylamino)pyrimido[4,5-d]pyridazin-5(6H)-one] | 233 |
| CCC[C@@H](C)Nc1nc(N)nc2cnn(Cc3ccc(CN(CCO)CCO)cc3)c(=O)c12 [Compound I-27, (R)-2-amino-6-(4-((bis(2-hydroxyethyl)amino)methyl)benzyl)-4-(pentan-2-ylamino)pyrimido[4,5-d]pyridazin-5(6H)-one] | 286 |

The remaining compounds from weak to strong by EC50, led by results:

| EC50 [nM] | Compound |
| --- | --- |
| 229 | CCCCNc1nc(N)nc2cnn(Cc3ccc4c(c3)CCNC4)c(=O)c12 [Compound I-8, 2-amino-4-(butylamino)-6-((1,2,3,4-tetrahydroisoquinolin-6-yl)methyl)pyrimido[4,5-d]pyridazin-5(6H)-one] |
| 222 | CCCCNc1nc(N)nc2cnn(Cc3ccc(CN(CCO)CCO)cc3)c(=O)c12 [Compound I-23, 2-amino-6-(4-((bis(2-hydroxyethyl)amino)methyl)benzyl)-4-(butylamino)pyrimido[4,5-d]pyridazin-5(6H)-one] |
| 218 | CCCCNc1nc(N)nc2cnn(Cc3ccc(CN4CCCC4)c(F)c3)c(=O)c12 [Compound I-18, 2-amino-4-(butylamino)-6-(3-fluoro-4-(pyrrolidin-1-ylmethyl)benzyl)pyrimido[4,5-d]pyridazin-5(6H)-one] |
| 185 | CCCCNc1nc(N)nc2cnn(Cc3ccc(CN4CCC5(CNC5)C4)cc3)c(=O)c12 [Compound I-12, 6-(4-((2,6-Diazaspiro[3.4]octan-6-yl)methyl)benzyl)-2-amino-4-(butylamino)pyrimido[4,5-d]pyridazin-5(6H)-one] |
| 183 | CCCCNc1nc(N)nc2cnn(Cc3ccc(CN4CCNCC4)cc3)c(=O)c12 [Compound I-9, 2-amino-4-(butylamino)-6-(4-(piperazin-1-ylmethyl)benzyl)pyrimido[4,5-d]pyridazin-5(6H)-one] |
| 153 | CCCCNc1nc(N)nc2cnn(Cc3ccc(CN(C)C)cc3)c(=O)c12 [Compound I-7, 2-amino-4-(butylamino)-6-(4-((dimethylamino)methyl)benzyl)pyrimido[4,5-d]pyridazin-5(6H)-one] |
| 112 | CCC[C@@H](C)Nc1nc(N)nc2cnn(Cc3ccc(CNCCO)cc3OC)c(=O)c12 [Compound I-44] |
| 107 | CCCC(C)Nc1nc(N)nc2cnn(Cc3ccc(CN4CCCC4)cc3)c(=O)c12 (centres unmarked) [Compound I-1, 2-amino-4-(pentan-2-ylamino)-6-(4-(pyrrolidin-1-ylmethyl)benzyl)pyrimido[4,5-d]pyridazin-5(6H)-one] |
| 101 | CCC[C@@H](C)Nc1nc(N)nc2cnn(Cc3ccc(CN4CC5(COC5)C4)cc3)c(=O)c12 [Compound I-41, (R)-6-(4-((2-oxo-6-azaspiro[3.3]heptan-6-yl)methyl)benzyl)-2-amino-4-(pentan-2-ylamino)pyrimido[4,5-d]pyridazin-5(6H)-one] |
| 74 | CCC[C@@H](C)Nc1nc(N)nc2cnn(Cc3ccc(CNCCO)cc3)c(=O)c12 [Compound I-42] |
| 73 | CCC[C@@H](CO)Nc1nc(N)nc2cnn(Cc3ccc(C(=O)N4CCNCC4)cc3)c(=O)c12 [Compound I-58, (S)-2-amino-4-((1-hydroxypentan-2-yl)amino)-6-(4-(piperazine-1-carbonyl)benzyl)pyrimido[4,5-d]pyridazin-5(6H)-one] |
| 41 | CCC[C@@H](CO)Nc1nc(N)nc2cnn(Cc3ccc(C(=O)N4CCN(C)CC4)cc3)c(=O)c12 [Compound I-69, (S)-2-amino-4-((1-hydroxypentan-2-yl)amino)-6-(4-(4-methylpiperazine-1-carbonyl)benzyl)pyrimido[4,5-d]pyridazin-5(6H)-one] |
| 23 | CCC[C@@H](CO)Nc1nc(N)nc2cnn(Cc3ccc(CN4CCN(C)CC4)cc3)c(=O)c12 [Compound I-66, (S)-2-amino-4-((1-hydroxypentan-2-yl)amino)-6-(4-((4-methylpiperazin-1-yl)methyl)benzyl)pyrimido[4,5-d]pyridazin-5(6H)-one] |
| 20 | CCC[C@@H](CO)Nc1nc(N)nc2cnn(Cc3ccc(C(=O)N4CC5CC(C4)N5)cc3)c(=O)c12 [Compound I-70, 6-(4-(3,6-diazabicyclo[3.1.1]heptane-3-carbonyl)benzyl)-2-amino-4-(((S)-1-hydroxypentan-2-yl)amino)pyrimido[4,5-d]pyridazin-5(6H)-one] |
| 9 | CCC[C@@H](CO)Nc1nc(N)nc2cnn(Cc3ccc(CN4CCCC4)cc3)c(=O)c12 [Compound I-59, (S)-2-amino-4-((1-hydroxypentan-2-yl)amino)-6-(4-(pyrrolidin-1-ylmethyl)benzyl)pyrimido[4,5-d]pyridazin-5(6H)-one] |
